These results are taken from patent US20050282859A1, “Dual acting SNRI-NMDA antagonists for the treatment of genitourinary disorders” (priority 2004, published 2005).

“Also recorded” adds a separate entry of the source. Read-outs that look alike come from different tables or passages of the source.

For data set [1], the system named is acetic acid-induced bladder irritation. To be noted: cat, S-norfluoxetine at 3 and 10 mg/kg; cited from earlier work.
For data set [2] the test system is unchanged. The data set is described as follows: Acute rat dilute acetic acid model (cystometry). In kind it is in vivo. To be noted: acetic acid infusion compared to vehicle. The source says:
The acute models described below provide methods for evaluating active agents in the treatment of overactive bladder. Briefly, the models provide a method for reducing the bladder capacity of test animals by infusing either protamine sulfate and potassium chloride (See, Chuang, Y. C. et al., Urology 61(3): 664-670 (2003)) or dilute acetic acid (See, Thor, K. and Katofiasc., M., 1995, J. Pharmacol. Exptl. Ther., 274:1014-1024; Sasaki, K. et al, J. Urol. 168(3) 1259-1264 (2002)) into the bladder. The infusates cause irritation of the bladder and a reduction in bladder capacity by selectively activating bladder afferent fibers, such as C-fiber afferents. Following irritation of the bladder, an active agent (drug) can be administered and the ability of the active agent to reverse (partially or totally) the reduction in bladder capacity resulting from the irritation, can be determined. Substances which reverse the reduction in bladder capacity can be used in the treatment of overactive bladder. Female rats (250-275 g) were anesthetized with urethane (1.2 g/kg) and a saline-filled jugular catheter (PE-50) was inserted for intravenous drug administration and a heparinized (100 units/ml) saline-filled carotid catheter (PE-50) was inserted for blood pressure monitoring. Via a midline abdominal incision from xyphoid to navel, a PE-50 catheter was inserted into the bladder dome for bladder filling and pressure recording. The abdominal cavity was moistened with saline and closed by covering with a thin plastic sheet in order to maintain access to the bladder for filling cystometry emptying purposes. […] Data for bicifadine were analyzed by non-parametric ANOVA for repeated measures (Friedman Test) with Dunn's Multiple Comparison test for cumulative dose-response studies. […] Additionally, % voiding efficiency was calculated using the following formula: ([…]/(Single Cystometrogram Bladder Capacity))*100 for bicifadine.

Data set [3] has the same test system. The data set is described as follows: Acute cat dilute acetic acid model (cystometry, EUS-EMG). The settings on record: for bladder capacity: intravenous, during acetic acid infusion. Type of data set: in vivo. The procedure: The ability of bicifadine and milnacipran, exemplary dual acting SNRI-NMDA antagonists, to reverse the reduction in bladder capacity observed following continuous infusion of dilute acetic acid in a cat model was tested. The cat model is a commonly used model for overactive bladder (Thor and Katofiasc, 1995, J. Pharmacol. Exptl. Ther. 274: 1014-24). Female cats (2.2-3 kg B W Harlan) were anesthetized with 4% isoflurane for induction followed by intravenous administration of α-chloralose (68-75 mg/kg). An i.v. catheter was inserted in the radial vein for drug administration. A heparinized (100 units/ml) saline-filled catheter (PE-90) was inserted into the carotid artery to monitor blood pressure. A trachea tube was place to monitor respiration. Via a midline lower abdominal incision, a modified 16 gauge i.v. catheter was inserted into the bladder dome for bladder filling and pressure recording. The abdominal cavity was moistened with saline and closed by covering with a thin plastic sheet in order to maintain access to the bladder for emptying purposes. Fine silver or stainless steel wire electrodes were inserted intraurethrally into the external urethral sphincter (EUS) for electromyography (EMG). Saline was continuously infused at a rate of 0.5-1 ml(s)/min via the bladder catheter for 60 minutes to obtain baseline of lower urinary tract activity (continuous cystometry; CMG). Following the control period, a 0.5% acetic acid (AA) solution in saline was infused into the bladder at the same flow rate to induce bladder irritation. Following 30 minutes of AA infusion, in one example, 1-2 vehicle injections were made at 30 minute intervals to determine vehicle effects, if any. Subsequently, increasing doses of bicifadine (0.1, 0.3, 1, 3 and 10 mg/kg) were administered intravenously at 30-60 minute intervals in order to construct a cumulative dose-response relationship (n=6). At the end of the control saline cystometry period, the vehicle, and 15 minutes following each subsequent treatment, the infusion pump was stopped, the bladder was emptied by fluid withdrawal via the infusion catheter and a single filling cystometrogram was performed at the same flow rate in order to determine changes in bladder capacity caused by the irritation protocol and subsequent drug administration. In a second example, subsequent to AA infusion, a vehicle injection was made to ensure that there were no vehicle effects. 10 mg/kg of milnacipran was then administered intravenously. The external urethral EMG activity, bladder pressure, and volume voided was measured during saline infusion, during AA infusion, and subsequent to milnacipran administration. Data for bicifadine were analyzed by non-parametric ANOVA for repeated measures (Friedman Test) with Dunn's Multiple Comparison test for cumulative dose-response studies. All comparisons were made from the last vehicle measurement. P<0.050 was considered significant.

The mark [4] stands for this setting: i.v. cumulative doses 0.1-10 mg/kg.

For the molecule `NCC[C@H](Oc1ccc(C(F)(F)F)cc1)c1ccccc1` [S-norfluoxetine], in data set [1], the “bladder capacity” value is “small increases” and the “urethral sphincter electromyographic (EMG) activity” value is “small increases”.

As to `Cc1ccc(C23CNCC2C3)cc1` (stereo not drawn) [bicifadine], the “increase in bladder capacity” value in data set [2] (1-10 mg/kg i.v. cumulative doses) is approximately 100%. The “effect on bladder capacity” value in data set [2] (all doses (1, 3, 10 mg/kg i.v.)) is given as “had an effect on the bladder capacity”. In data set [2] (increasing i.v. doses), the “voiding efficiency” value was “not effected; also recorded: basically unaffected”. Further, the “increase in bladder capacity” value in data set [3] (1-10 mg/kg i.v. cumulative doses, acetic acid infusion compared to vehicle) was found to be 3 fold. Moreover, the “increase in voiding efficiency” value in data set [3] (1-10 mg/kg i.v., acetic acid infusion compared to vehicle) is recorded as approximately 10%. Moreover, in data set [3] (i.v. bicifadine, n=6 experiments), the “increases in sphincter EMG during bladder filling” value is recorded as “seen in two of the six experiments”. In addition, in data set [3] (setting [4]), the arterial pressure entry is on record as “No significant decrease; also recorded: No significant changes” and the heart rate entry is on record as “No significant changes”. Further, in data set [3] (i.v., 1-10 mg/kg, acetic acid infusion), the “contraction frequency (bladder overactivity) during continuous cystometry” value is given as “reduced bladder overactivity; also recorded: dose dependent decrease from 1-10 mg/kg but this was not significant”. The “bladder capacity” value in data set [3] is recorded as “significant increase”. Further, the “sphincter EMG activity during micturition contractions (bladder-sphincter synergy)” value in data set [3] (the two experiments with increased sphincter EMG) is on record as “inhibited during micturition contractions”.

For the molecule `CNCC[C@H](Oc1cccc2ccccc12)c1cccs1` [duloxetine], in data set [1], the “bladder capacity” value was “markedly increases” and the “urethral sphincter electromyographic (EMG) activity” value is “markedly increases”.

Regarding `CCN(CC)C(=O)C1(c2ccccc2)CC1CN` (stereo not drawn) [milnacipran], the “sphincter EMG activity” value in data set [3] (10 mg/kg i.v., acetic acid infusion) was “unexpected increase”. Further, the “increase in bladder capacity” value in data set [3] (10 mg/kg i.v., acetic acid infusion compared to control) is recorded as approximately 2 fold. Also, the “increase in sphincter EMG activity, Root Mean Square” value in data set [3] (10 mg/kg i.v., during the period following the bladder contraction) turned out to be 82.5 millivolts; in data set [3] (10 mg/kg i.v., during the period of bladder filling), 19.4 millivolts. Further, the “bladder capacity” value in data set [3] is reported as “significant increase”.

For `CNCCC(Oc1ccccc1SC)c1ccccc1` (stereo not drawn) [thionisoxetine], in data set [1], the “bladder capacity” value is on record as “no effects” and the “urethral sphincter electromyographic (EMG) activity” value is “no effects”.

As to `COc1ccc(C(CN(C)C)C2(O)CCCCC2)cc1` (stereo not drawn) [venlafaxine], in data set [1], the “bladder capacity” value is reported as “markedly increases” and the “urethral sphincter electromyographic (EMG) activity” value is on record as “markedly increases”.
